According to patent US12077503B2, “Substituted cyclic amides and their use as herbicides” (FMC CORPORATION, priority 2015, dated 2024):

Assays:
Type in all cases: in vivo
Kochia (Kochia scoparia) [1] = experiment: Test A preemergence; conditions: Bassia scoparia, pre-emergence, 240 h; for pest or weed control at 125 g/ha: 125 g ai/ha, preemergence, visual rating after approx. 10 d, 0 to 100 scale where 0 is no effect and 100 is complete control, read-out: Plant response rating, Kochia; for pest or weed control at 500 g/ha: 500 g ai/ha, Preemergence, visual injury vs untreated controls after approximately 10 d, read-out: Kochia plant response rating (0 to 100 scale where 0 is no effect and 100 is complete control)
Summary of the method: (§1)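 Visual injury, scored on a 0–100 scale relative to untreated controls, was recorded about 10 d after application. Treatments were a preemergence soil spray over planted seeds or a postemergence spray on plants at the one- to two-leaf stage, 2 to 10 cm tall, all in loam soil–sand blend in the greenhouse.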

[2] = system: barnyardgrass (Echinochloa crus-galli); experiment: Test A preemergence; conditions: Echinochloa crus-galli, pre-emergence, 240 h; for pest or weed control at 125 g/ha: 125 g ai/ha, preemergence, visual rating after approx. 10 d, 0 to 100 scale where 0 is no effect and 100 is complete control, read-out: Plant response rating, Barnyardgrass; for pest or weed control at 500 g/ha: 500 g ai/ha, Preemergence, visual injury vs untreated controls after approximately 10 d, read-out: Barnyardgrass plant response rating (0 to 100 scale where 0 is no effect and 100 is complete control)
Summary of the method: as §1

[3] = system: giant foxtail (Setaria faberii); experiment: Test A preemergence; conditions: Setaria faberi, pre-emergence, 240 h; for pest or weed control at 125 g/ha: 125 g ai/ha, preemergence, visual rating after approx. 10 d, 0 to 100 scale where 0 is no effect and 100 is complete control, read-out: Plant response rating, Foxtail, Giant; for pest or weed control at 500 g/ha: 500 g ai/ha, Preemergence, visual injury vs untreated controls after approximately 10 d, read-out: Foxtail, Giant plant response rating (0 to 100 scale where 0 is no effect and 100 is complete control)
Summary of the method: as §1

[4] = system: pigweed (Amaranthus retroflexus); experiment: Test A preemergence; conditions: Amaranthus retroflexus, pre-emergence, 240 h; for pest or weed control at 125 g/ha: 125 g ai/ha, preemergence, visual rating after approx. 10 d, 0 to 100 scale where 0 is no effect and 100 is complete control, read-out: Plant response rating, Pigweed; for pest or weed control at 500 g/ha: 500 g ai/ha, Preemergence, visual injury vs untreated controls after approximately 10 d, read-out: Pigweed plant response rating (0 to 100 scale where 0 is no effect and 100 is complete control)
[5] = system: ragweed (common ragweed, Ambrosia elatior); experiment: Test A preemergence; conditions: Ambrosia artemisiifolia, pre-emergence, 240 h; for pest or weed control at 125 g/ha: 125 g ai/ha, preemergence, visual rating after approx. 10 d, 0 to 100 scale where 0 is no effect and 100 is complete control, read-out: Plant response rating, Ragweed; for pest or weed control at 500 g/ha: 500 g ai/ha, Preemergence, visual injury vs untreated controls after approximately 10 d, read-out: Ragweed plant response rating (0 to 100 scale where 0 is no effect and 100 is complete control)
Summary of the method: as §1

[6] = system: ryegrass, Italian (Italian ryegrass, Lolium multiflorum); experiment: Test A preemergence; conditions: Lolium multiflorum, pre-emergence, 240 h; for pest or weed control at 125 g/ha: 125 g ai/ha, preemergence, visual rating after approx. 10 d, 0 to 100 scale where 0 is no effect and 100 is complete control, read-out: Plant response rating, Ryegrass, Italian; for pest or weed control at 500 g/ha: 500 g ai/ha, Preemergence, visual injury vs untreated controls after approximately 10 d, read-out: Ryegrass, Italian plant response rating (0 to 100 scale where 0 is no effect and 100 is complete control)
Summary of the method: as §1

Kochia (Kochia scoparia) [7] = experiment: Test A postemergence; conditions: Bassia scoparia, post-emergence, 240 h, 125 g ai/ha, postemergence; visual injury after approximately 10 d; 0 to 100 scale (0 no effect, 100 complete control); read-out: Plant response rating, Kochia
Summary of the method: as §1

[8] = system: barnyardgrass (Echinochloa crus-galli); experiment: Test A postemergence; conditions: Echinochloa crus-galli, post-emergence, 240 h, 125 g ai/ha, postemergence; visual injury after approximately 10 d; 0 to 100 scale (0 no effect, 100 complete control); read-out: Plant response rating, Barnyardgrass
Summary of the method: as §1

[9] = system: blackgrass (Alopecurus myosuroides); experiment: Test A postemergence; conditions: Alopecurus myosuroides, post-emergence, 240 h, 125 g ai/ha, postemergence; visual injury after approximately 10 d; 0 to 100 scale (0 no effect, 100 complete control); read-out: Plant response rating, Blackgrass
Summary of the method: as §1

[10] = system: giant foxtail (Setaria faberii); experiment: Test A postemergence; conditions: Setaria faberi, post-emergence, 240 h, 125 g ai/ha, postemergence; visual injury after approximately 10 d; 0 to 100 scale (0 no effect, 100 complete control); read-out: Plant response rating, Foxtail, Giant
Summary of the method: as §1

[11] = system: ragweed (common ragweed, Ambrosia elatior); experiment: Test A postemergence; conditions: Ambrosia artemisiifolia, post-emergence, 240 h, 125 g ai/ha, postemergence; visual injury after approximately 10 d; 0 to 100 scale (0 no effect, 100 complete control); read-out: Plant response rating, Ragweed
Summary of the method: as §1

[12] = system: barnyardgrass (Echinochloa crus-galli); experiment: Test B flooded paddy test; conditions: Echinochloa crus-galli, Flood, 250 g ai/ha; scale of 0 to 100 where 0 is no effect and 100 is complete control; read-out: Barnyardgrass plant response rating
Summary of the method: (§2)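 Response scored visually against untreated controls, 0 = no effect and 100 = complete control, 13–15 d after treatment in the greenhouse. Compounds added to paddy water held 3 cm above soil surface. Treatment given at 2-leaf stage.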

[13] = system: ducksalad (Heteranthera limosa); experiment: Test B flooded paddy test; conditions: Heteranthera limosa, Flood, 250 g ai/ha; scale of 0 to 100 where 0 is no effect and 100 is complete control; read-out: Ducksalad plant response rating
Summary of the method: as §2

rice (Oryra sativa) = experiment: Test B flooded paddy test; conditions: Oryza sativa, Flood, 250 g ai/ha; scale of 0 to 100 where 0 is no effect and 100 is complete control; read-out: Rice plant response rating
Summary of the method: as §2

[14] = system: sedge, umbrella (small-flower umbrella sedge, Cyperus difformis); experiment: Test B flooded paddy test; conditions: Cyperus difformis, Flood, 250 g ai/ha; scale of 0 to 100 where 0 is no effect and 100 is complete control; read-out: Sedge, Umbrella plant response rating
Summary of the method: as §2

`O=C1NC[C@H](c2ccc(OC(F)F)cc2)[C@H]1C(=O)Nc1ccccc1F` [Compound 778] showed a pest or weed control at 125 g/ha (Kochia (Kochia scoparia) [1]) of 80%, a pest or weed control at 500 g/ha (Kochia (Kochia scoparia) [1]) of 80% and a pest or weed control at 125 g/ha [2] of 70%. It also gave a pest or weed control at 500 g/ha [2] of 90%, a pest or weed control at 125 g/ha [3] of 90% and a pest or weed control at 500 g/ha [3] of 90%. It also gave a pest or weed control at 125 g/ha [4] of 30%, a pest or weed control at 500 g/ha [4] of 80% and a pest or weed control at 125 g/ha [5] of 40%. It also gave a pest or weed control at 500 g/ha [5] of 60%, a pest or weed control at 125 g/ha [6] of 0% and a pest or weed control at 500 g/ha [6] of 20%. For the same compound, the pest or weed control at 125 g/ha (Kochia (Kochia scoparia) [7]) was 60%, the pest or weed control at 125 g/ha [8] was 80% and the pest or weed control at 125 g/ha [9] was 10%. For the same compound, the pest or weed control at 125 g/ha [10] was 70%, the pest or weed control at 125 g/ha [11] was 0% and the pest or weed control at 250 g/ha [12] was 0%. The pest or weed control at 250 g/ha [13] was 100%, the pest or weed control at 250 g/ha (rice (Oryra sativa)) was 0% and the pest or weed control at 250 g/ha [14] was 0%.

`CC(F)(F)c1cccc([C@H]2CNC(=O)[C@@H]2C(=O)Nc2ccc(F)cc2F)c1` [Compound 781] showed a pest or weed control at 125 g/ha (Kochia (Kochia scoparia) [1]) of 50%, a pest or weed control at 500 g/ha (Kochia (Kochia scoparia) [1]) of 90% and a pest or weed control at 125 g/ha [2] of 80%. It also gave a pest or weed control at 500 g/ha [2] of 100%, a pest or weed control at 125 g/ha [3] of 90% and a pest or weed control at 500 g/ha [3] of 100%. It also gave a pest or weed control at 125 g/ha [4] of 0%, a pest or weed control at 500 g/ha [4] of 70% and a pest or weed control at 125 g/ha [5] of 0%. It also gave a pest or weed control at 500 g/ha [5] of 0%, a pest or weed control at 125 g/ha [6] of 20% and a pest or weed control at 500 g/ha [6] of 50%. For the same compound, the pest or weed control at 125 g/ha (Kochia (Kochia scoparia) [7]) was 0%, the pest or weed control at 125 g/ha [8] was 90% and the pest or weed control at 125 g/ha [9] was 70%. The pest or weed control at 125 g/ha [10] was 80%, the pest or weed control at 125 g/ha [11] was 0% and the pest or weed control at 250 g/ha [12] was 65%. The pest or weed control at 250 g/ha [13] was 100%, the pest or weed control at 250 g/ha (rice (Oryra sativa)) was 0% and the pest or weed control at 250 g/ha [14] was 0%.

Work on `CC(F)(F)c1cccc([C@H]2CNC(=O)[C@@H]2C(=O)Nc2ccccc2F)c1` [Compound 782] yielded a pest or weed control at 125 g/ha (Kochia (Kochia scoparia) [1]) of 80%, a pest or weed control at 500 g/ha (Kochia (Kochia scoparia) [1]) of 90% and a pest or weed control at 125 g/ha [2] of 80%. For the same compound, the pest or weed control at 500 g/ha [2] was 90%, the pest or weed control at 125 g/ha [3] was 90% and the pest or weed control at 500 g/ha [3] was 100%. It also gave a pest or weed control at 125 g/ha [4] of 0%, a pest or weed control at 500 g/ha [4] of 50% and a pest or weed control at 125 g/ha [5] of 0%. For the same compound, the pest or weed control at 500 g/ha [5] was 20%, the pest or weed control at 125 g/ha [6] was 40% and the pest or weed control at 500 g/ha [6] was 60%. For the same compound, the pest or weed control at 125 g/ha (Kochia (Kochia scoparia) [7]) was 10%, the pest or weed control at 125 g/ha [8] was 90% and the pest or weed control at 125 g/ha [9] was 70%. The pest or weed control at 125 g/ha [10] was 90%, the pest or weed control at 125 g/ha [11] was 0% and the pest or weed control at 250 g/ha [12] was 65%. For the same compound, the pest or weed control at 250 g/ha [13] was 100%, the pest or weed control at 250 g/ha (rice (Oryra sativa)) was 0% and the pest or weed control at 250 g/ha [14] was 0%.
